Read-outs that look alike come from different tables or passages of the source.
What was measured:
[1] = test system: Tubulin; assay: Tubulin assembly induction; type: biochemical
[2] = test system: MES SA; assay: Cytotoxicity assay (CellTiter-Glo), MES SA; type: cell-based, human; settings: MES-SA, read-out: Cancer cell lines IC50, MES SA
[3] = test system: MES SA DX; assay: Cytotoxicity assay (CellTiter-Glo), MES SA DX; type: cell-based, human; settings: Homo sapiens, read-out: Cancer cell lines IC50, MES SA DX
[4] = test system: OVCAR-8; assay: Cytotoxicity (GI50) assay, OVCAR-8; type: cell-based, human
[5] = test system: HEK 293T; assay: Cytotoxicity assay (CellTiter-Glo), HEK 293T; type: cell-based; settings: Homo sapiens, 72 h, read-out: Cancer cell lines IC50, HEK 293T
[6] = test system: MCF-7; assay: Cytotoxicity (GI50) assay, MCF-7; type: cell-based, human
[7] = test system: NCI/ADR-RES; assay: Cytotoxicity (GI50) assay, NCI/ADR-RES; type: cell-based, human; settings: Homo sapiens, NCI/ADR-RES, read-out: Cancer cell lines GI50, NCI/ADR-RES
[8] = test system: SNB-75; assay: Cytotoxicity (GI50) assay, SNB-75; type: cell-based, human
[9] = test system: MDA-MB-435; assay: Cytotoxicity (GI50) assay, MDA-MB-435; type: cell-based, human
[10] = Homo sapiens, OVCAR-8, read-out: Cancer cell lines GI50, OVCAR-8
[11] = Homo sapiens, MCF7, read-out: Cancer cell lines GI50, MCF-7
[12] = Homo sapiens, SNB-75, read-out: Cancer cell lines GI50, SNB-75
[13] = Homo sapiens, MDA-MB-435, read-out: Cancer cell lines GI50, MDA-MB-435

| Compound | EC50 ([1]; […]) [nM] | IC50 ([2]; Homo sapiens, 72 h) [nM] | IC50 ([3]; MES-SA, 72 h) [nM] | GI50 [4, 10] [nM] | IC50 [5] [nM] | GI50 [6, 11] [nM] | GI50 [7] [nM] | GI50 [8, 12] [nM] | GI50 [9, 13] [nM] | EC50 [1] [nM] | GI50 ([8]; SNB-75, human glioblastoma cell line, read-out: Cancer cell lines GI50, SNB-75) [nM] | GI50 ([9]; MDA-MB-435, human melanoma cell line, read-out: Cancer cell lines GI50, MDA-MB-435) [nM] | IC50 ([2]; human uterine sarcoma cell line, 72 hours, CellTiter-Glo) [nM] | IC50 ([3]; MES SA cell line with marked multidrug resistance, 72 hours, CellTiter-Glo) [nM] | GI50 ([4]; OVCAR-8, human ovarian cancer cell line, read-out: Cancer cell lines GI50, OVCAR-8) [nM] | GI50 ([7]; highly drug resistant human ovarian cancer cell line) [nM] | GI50 ([6]; MCF7, human breast cancer cell line, concentration required to decrease cell growth by 50%, read-out: Cancer cell lines GI50, MCF-7) [nM] |
| --- | --- | --- | --- | --- | --- | --- | --- | --- | --- | --- | --- | --- | --- | --- | --- | --- | --- |
| C/C(=C\c1csc(C)n1)[C@@H]1C[C@H]2[C@@H](CCC[C@H](C)[C@H](O)[C@@H](C)C(=O)C(C)(C)[C@@H](O)CC(=O)O1)N2CCO (stereo partly drawn) [compound 9, (1S,3S,7S,10R,11S,12S,16R)-7,11-Dihydroxy-17-(2-hydroxyethyl)-8,8,10,12-tetramethyl-3-[(1E)-1-(2-methyl-1,3-thiazol-4-yl)prop-1-en-2-yl]-4-oxa-17-azabicyclo[14.1.0]heptadecane-5,9-dione, reference compound] | 1900 | 8.01 | 15.7 | 3 | 0.67 | 2 | – | – | – | – | – | – | – | – | – | – | – |
| C/C(=C\c1csc(C)n1)[C@@H]1C[C@@H]2N[C@@H]2CCC[C@H](C)[C@H](O)[C@@H](C)C(=O)C(C)(C)[C@@H](O)CC(=O)O1 [compound 8, 12,13-aziridinyl epothilone A, reference compound] | > 40000 | 1.14 | 16.9 | 5.5 | 0.95 | 2.5 | 38 | – | – | – | – | – | – | – | – | – | – |
| C#CCCN1[C@H]2C[C@@H](/C(C)=C/c3csc(SC)n3)OC(=O)C[C@H](O)C(C)(C)C(=O)[C@H](C)[C@@H](O)[C@@H](C)CCC[C@]21C (stereo partly drawn) [compound 39, (1S,3S,7S,10R,11S,12S,16R)-17-(But-3-yn-1-yl)-7,11-dihydroxy-8,8,10,12,16-pentamethyl-3-{(1E)-1-[2-(methylsulfanyl)-1,3-thiazol-4-yl]prop-1-en-2-yl}-4-oxa-17-azabicyclo[14.1.0]heptadecane-5,9-dione] | 3500 | 0.23 | 0.45 | 18 | 0.09 | 30 | – | 31 | 3.5 | – | – | – | – | – | – | – | – |
| CSc1nc(/C=C(\C)[C@@H]2C[C@@H]3N(CCOC(C)=O)[C@]3(C)CCC[C@H](C)[C@H](O)[C@@H](C)C(=O)C(C)(C)[C@@H](O)CC(=O)O2)cs1 (stereo partly drawn) [compound 36, 2-[(1S,3S,7S,10R,11S,12S,16R)-7,11-Dihydroxy-8,8,10,12,16-pentamethyl-3-{(1E)-1-[2-(methylsulfanyl)-1,3-thiazol-4-yl]prop-1-en-2-yl}-5,9-dioxo-4-oxa-17-azabicyclo[14.1.0]-heptadec-17-yl]ethyl acetate] | 4000 | 0.29 | 0.86 | 18 | 0.07 | 5.5 | – | 23 | 3.5 | – | – | – | – | – | – | – | – |
| CC1=CCC(C(C)=Cc2csc(C)n2)OC(=O)CC(O)C(C)(C)C(=O)C(C)C(O)C(C)CCC1 (stereo not shown) [compound 4, epothilone D, reference compound] | – | 6.84 | 9.7 | 13 | 3.55 | 14 | 17 | – | – | 18000 | – | – | – | – | – | – | – |
| C/C(=C\c1nc2ccccc2s1)[C@@H]1C[C@@H]2N(CCO)[C@]2(C)CCC[C@H](C)[C@H](O)[C@@H](C)C(=O)C(C)(C)[C@@H](O)CC(=O)O1 (stereo partly drawn) [compound 24, (1S,3S,7S,10R,11S,12S,16R)-3-[(1E)-1-(1,3-Benzothiazol-2-yl)prop-1-en-2-yl]-7,11-dihydroxy-17-(2-hydroxyethyl)-8,8,10,12,16-pentamethyl-4-oxa-17-azabicyclo[14.1.0]heptadecane-5,9-dione] | 7900 | – | – | – | – | – | – | – | – | – | 12 | 3.5 | 0.18 | 1.32 | 23 | 630 | 11 |
| CSc1nc(/C=C(\C)[C@@H]2C[C@@H]3N(CCO)[C@]3(C)CCC[C@H](C)[C@H](O)[C@@H](C)C(=O)C(C)(C)[C@@H](O)CC(=O)O2)co1 (stereo partly drawn) [compound 17, (1S,3S,7S,10R,11S,12S,16R)-7,11-Dihydroxy-17-(2-hydroxyethyl)-8,8,10,12,16-pentamethyl-3-{(1E)-1-[2-(methylsulfanyl)-1,3-oxazol-4-yl]prop-1-en-2-yl}-4-oxa-17-azabicyclo[14.1.0]-heptadecane-5,9-dione] | 4000 ± 1000 | 0.02 | 1.11 | 25 | 0.05 | 7.5 | – | 13 | 3.5 | – | – | – | – | – | – | – | – |

Reference: patent US20210238187A1, “AZIRIDINE CONTAINING EPOTHILONE ANALOGS, METHODS OF SYNTHESIS, METHODS OF TREATMENT, AND DRUG CONJUGATES” (WILLIAM MARSH RICE UNIVERSITY, priority 2017, published 2021)
